Counter-ions that a name gives are not always drawn.
Legend:
[1] = Acute toxicity, 7-day test, method of Litchfield and Wilcoxon; details: mouse, in vivo, mice
Excerpt: The toxicity has been determined in a 7-day test with NMRI-mice having an average body weight of 18 to 26 g according to the method of Litchfield and Wilcoxon.

[2] = tested on: nictitating-membrane; assay: Adrenaline stimulated nictitating-membrane of anesthetized cats (peripheral vasodilation); format: in vivo; details: for change in adrenaline-induced nictitating-membrane contraction: anesthetized cats, 0.01 mg Adrenaline i.v.; for effectiveness compared to Compound A (nictitating-membrane): in words, from Table II
Experimental: a. Adrenaline stimulated nictitating-membrane of anesthetized cats
This experiment is a classical model for the measurements of a peripheral vasodilation. Male and female cats have been anesthetized with pentobarbital. After tracheotomy the contraction of the nictitating-membrane was recorded by means of a strain-gauge. As stimulating agent 0.01 mg Adrenaline has been administered intravenously in intervals of 10 minutes.

[3] = tested on: isolated rabbit ears; assay: Isolated rabbit ears, Pissensky's method (increased number of drops)
Experimental: b. Experiments on isolated rabbit ears
Male and female rabbits were killed 15 minutes after administration of heparine. Both ears were then cut off at the bases and examined according to Pissensky's method. The overflowing drops were measured by means of an electronic drop counter.

[4] = prior art, cited from earlier work

## Cc1cc(OCCN(C)C)c(C(C)C)cc1OC(=O)OC(C)C [Compound 1, (4-Isopropoxycarboxy-thymyl)-(2'-dimethylaminoathyl)-ether.HCl]
[1]; iv
  LD50 at 168 h: 44 mg/kg
[1]; po, i.g.
  LD50 at 168 h: 272 mg/kg
[1]; sc
  LD50 at 168 h: 210 mg/kg
[2]; 0.025 mg/kg i.v.
  change in adrenaline-induced nictitating-membrane contraction: ~ 60%
[2]; 0.5 mg/kg i.v.
  change in adrenaline-induced nictitating-membrane contraction: 100%
[2]; 2 mg/kg i.v.
  change in adrenaline-induced nictitating-membrane contraction: absolute in-
[2]
  effectiveness compared to Compound A (nictitating-membrane): much more effective than Compound A
[3]; 0,5 mg
  Increased number of drops measured in the isolated rabbit ear: ~ 20%
[3]; 1 mg
  Increased number of drops measured in the isolated rabbit ear: 34%
[3]; 2 mg
  Increased number of drops measured in the isolated rabbit ear: 58%
[3]; 4 mg
  Increased number of drops measured in the isolated rabbit ear: 139%
[3]; 0,025 mg
  Increased number of drops measured in the isolated rabbit ear: ~ 10%
[3]; in words, from Table III
  action on the vessels of isolated rabbit ears: unexpected action on the vessels of isolated rabbit ears

## CCCCCCCCCC(=O)Oc1cc(C(C)C)c(OCCN(C)C)cc1C [Compound 2, (4-Caprinyloxy-thymyl)-(2'-dimethylaminoathyl)-ether.HCl]
[1]; iv
  LD50 at 168 h: 96 mg/kg
[1]; po, i.g.
  LD50 at 168 h: 1020 mg/kg
[1]; sc
  LD50 at 168 h: 1550 mg/kg
[2]; 0.025 mg/kg i.v.
  change in adrenaline-induced nictitating-membrane contraction: ~ 10%
[2]; 0.5 mg/kg i.v.
  change in adrenaline-induced nictitating-membrane contraction: ~ 50%
[2]; 2 mg/kg i.v.
  change in adrenaline-induced nictitating-membrane contraction: 80%
[2]
  effectiveness compared to Compound A (nictitating-membrane): much more effective than Compound A
[3]; 0,5 mg
  Increased number of drops measured in the isolated rabbit ear: 10%
[3]; 1 mg
  Increased number of drops measured in the isolated rabbit ear: 27%
[3]; 2 mg
  Increased number of drops measured in the isolated rabbit ear: 68%
[3]; 4 mg
  Increased number of drops measured in the isolated rabbit ear: ~ 80%
[3]; 0,025 mg
  Increased number of drops measured in the isolated rabbit ear: 15%

## CC(=O)Oc1cc(C(C)C)c(OCCN(C)C)cc1C [Compound A, reference compound]
[1]; iv
  LD50 at 168 h: 48 mg/kg
[1]; po, i.g.
  LD50 at 168 h: 193 mg/kg
[1]; sc
  LD50 at 168 h: 156 mg/kg
[2]; 0.025 mg/kg i.v.
  change in adrenaline-induced nictitating-membrane contraction: 0%
[2]; 0.5 mg/kg i.v.
  change in adrenaline-induced nictitating-membrane contraction: 0%
[2]; 2 mg/kg i.v.
  change in adrenaline-induced nictitating-membrane contraction: 50%
[3]; 0,5 mg
  Increased number of drops measured in the isolated rabbit ear: 15%
[3]; 1 mg
  Increased number of drops measured in the isolated rabbit ear: 15%
[3]; 2 mg
  Increased number of drops measured in the isolated rabbit ear: 16%
[3]; 4 mg
  Increased number of drops measured in the isolated rabbit ear: 16%
[3]; 0,025 mg
  Increased number of drops measured in the isolated rabbit ear: 14%
[4]
  duration of action: short duration of action
[4]; thymoxamine
  absorbability: low absorbability
  toxicity: relative toxicity

## CCCCCCCC(=O)Oc1cc(C(C)C)c(OCCN(C)C)cc1C [Compound 3, (4-Capryloxy-thymyl)-(2'-dimethylaminoathyl)-ether.HCl]
[1]; iv
  LD50 at 168 h: 25 mg/kg
[1]; po, i.g.
  LD50 at 168 h: 400 mg/kg
[2]; 0.025 mg/kg i.v.
  change in adrenaline-induced nictitating-membrane contraction: ~ 30%
[2]; 0.5 mg/kg i.v.
  change in adrenaline-induced nictitating-membrane contraction: 80%
[2]; 2 mg/kg i.v.
  change in adrenaline-induced nictitating-membrane contraction: 100%
[2]
  effectiveness compared to Compound A (nictitating-membrane): much more effective than Compound A
[3]; 0,5 mg
  Increased number of drops measured in the isolated rabbit ear: 80%
[3]; 0,025 mg
  Increased number of drops measured in the isolated rabbit ear: ~ 40%
